# Measured values from patent US5104891A, “Cycloheptimidazolone compounds as angiotensin II antagonists for control of hypertension” (G. D. Searle & Co., priority 1989, dated 1992).
# Assays:
# [1] = biological target: T1, angiotensin II (AII) contraction of rabbit aortic rings (Oryctolagus cuniculus, UniProt P34976); experiment: In vitro myotropic screening assay for AII antagonists in rabbit aortic rings; format: cell-based; conditions: pA2 determined according to Schild
# T1 construct: The thoracic aorta was removed, cleaned of adherent fat and connective tissue and then cut into 3-mm ring segments; from tissue; host or cells: rabbit thoracic aorta rings, endothelium removed
# T1 sequence (P34976 1-359): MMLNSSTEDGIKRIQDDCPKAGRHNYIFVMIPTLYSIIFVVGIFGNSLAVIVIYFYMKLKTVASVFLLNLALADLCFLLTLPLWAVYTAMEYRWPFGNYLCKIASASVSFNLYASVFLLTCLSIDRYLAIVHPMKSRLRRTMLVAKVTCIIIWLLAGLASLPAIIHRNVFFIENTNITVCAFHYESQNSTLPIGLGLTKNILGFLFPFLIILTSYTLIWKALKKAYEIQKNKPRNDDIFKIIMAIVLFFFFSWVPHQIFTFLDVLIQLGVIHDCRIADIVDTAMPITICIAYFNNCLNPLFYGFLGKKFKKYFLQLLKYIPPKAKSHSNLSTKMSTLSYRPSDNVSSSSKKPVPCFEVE
# Description: The compounds of the invention were tested for agonist and antagonist activity in rabbit aortic rings. Male New Zealand white rabbits (2-2.5 kg) were sacrificed using an overdose of pentobarbital and exsanguinated via the carotid arteries. The thoracic aorta was removed, cleaned of adherent fat and connective tissue and then cut into 3-mm ring segments. The endothelium was removed from the rings by gently sliding a rolled-up piece of filter paper into the vessel lumen. The rings were then mounted in a water-jacketed tissue bath, maintained at 37° C., between a moveable and a fixed stainless steel wire, with the moveable end attached to an FT03 Grass transducer coupled to a Model 7D Grass Polygraph for recording isometric force responses. […] The preparations were equilibrated for one hour before approximately one gram of passive tension was placed on the rings. For the agonist assay, the rings were exposed to increasing concentrations of the test compound, at 30 minute intervals, during which time the tissue was washed three times with 20 ml of fresh Krebs solution. For the measurement of antagonistic activity, paired rings from the same rabbits were used; one was exposed to increasing concentrations of AII (at 30 minute intervals), and a second ring was exposed to increasing concentrations of AII in the presence of the test compound which was added five minutes prior to the addition of AII. The concentration response curves for AII in the presence of the antagonist were evaluated in terms of the percent of the maximal contraction of the control ring exposed only to AII. pD2 values for AII were calculated from the AII concentration response curves while pA2s were determined according to Schild.
# [2] = biological target: angiotensin II receptor (rat uterine membranes); experiment: Angiotensin II binding assay (125I-angiotensin II, rat uterine membranes)
# Description: Other chemicals were obtained from Sigma Chemical Co.
# Rat uterine membranes were prepared from fresh tissue. All procedures were carried out at 4° C. Uteri were stripped of fat and homogenized using a Polytron for 25 sec in 20 volumes of ice-cold Dulbecco's phosphate-buffered saline pH 7.5 (Gibso Labs) containing 5 mM EDTA. The homogenate was centrifuged at 1500× g for 20 min., and the supernatant was recentrifuged at 100,000× g for 60 min. The pellet was resuspended in buffer consisting of 2 mM EDTA and 50 mM Tris-HCl, pH 7.5 to a final protein concentration of 4 mg/ml.
# The reaction was initiated by the addition of 50 μg of membrane protein and the mixture was incubated at 25° C. for 30 min. The incubation was terminated with ice-cold 50 mM Tris-HCl; pH 7.5 and the mixture was filtered to separate membrane-bound labelled peptide from the free ligand. The incubation tube and filter were washed with ice-cold buffer. Filters were assayed for radioactivity in a Micromedic gamma counter. Nonspecific binding was defined as binding in the presence of 10 μM of unlabelled AII. Specific binding was calculated as total binding minus nonspecific binding. Binding data was analyzed by a nonlinear least-squares curve fitting program.
# angiotensin II = conditions: literature; cited from earlier work
# AII pressor response [3] = experiment: In vivo AII pressor assay, intraduodenal administration; design: species or system rat (male Sprague Dawley); conditions: rat, @ 100 mg
# Description: (§1) Male Sprague Dawley rats weighing […] were anesthetized with Inactin (100 mg/kg), a catheter was inserted into the trachea and the carotid artery and the jugular vein were cannulated. Arterial pressure was measured from the carotid artery cannula and continuously recorded (Gould, Cleveland, OH). The jugular vein cannula was used for injections of angiotensin II (AII), mecamylamine, atropine and the test compound. The animal was allowed to equilibrate for 30 minutes. Mecamylamine (3 mg/kg, 0.3 mg/kg) and atropine (400 μg/kg, 0.3 ml/kg) were then given iv to produce ganglion blockage. These compounds were administered every 90 minutes throughout the screening procedure. Angiotensin II was given in bolus doses ([…] in saline with 0.5% bovine serum albumin, 0.1 ml/kg) every 10 minutes consecutively three times or until the increase in arterial pressure produced was within 3 mm Hg for two consecutive injections. […] AII injections were then given 1, 5, 10, 20, 30, 45, 60, 75, 90, and 120 minutes after administration of the test compound and the response of arterial pressure monitored. […]
# Compounds were tested for absorption from the gastrointestinal tract following intraduodenal administration. […] The response to AII was tested at the same time points following administration of the test compound except that the 1 minute reading was eliminated. […]
# AII pressor response [4] = experiment: In vivo pressor screening assay for AII antagonists, intravenous administration; design: species or system rat (male Sprague Dawley); conditions: rat
# Description: as §1, with “injections. The last two AII injections are averaged and are referred to as the control response to AII.” for “injections.”
# angiotensin II receptors = conditions: background; cited from earlier work
# [5] = IC50, 125I-AII, rat uterine membranes, 25° C., 30 min
Compound,"IC50 [2, 5] [nM]",IC50 ([2]; meaning not explained) [nM],Kb [1] [nM],also measured
"4'-[[5(7)-benzyl-7(5)hydrido-2-butyl-6(1H)-cycloheptimidazolon-1-yl]methyl]-[1,1'-biphenyl]-2-carboxylic acid [Example 14]",2300,108,,pA2 [1]: 6.1
CCCCc1nc(Cl)c(CC(=O)O)n1Cc1ccccc1[N+](=O)[O-] [2-butyl-4-chloro-1-(2-nitrobenzyl)imiadzole-5-acetic acid],,,,angiotensin II antagonist activity (angiotensin II): specific competitive angiotensin II antagonist activity
CCCCc1nc(Cl)c(CC(=O)O)n1Cc1ccccc1Cl [2-n-butyl-4-chloro-1-(2-chlorobenzyl) imidozole-s-acetic acid],,,,angiotensin II antagonist activity (angiotensin II): specific competitive angiotensin II antagonist activity
"CCCCc1nc2cc(C)c(=O)c(C)cc2n1Cc1ccc(-c2ccccc2C(=O)O)cc1 [Example 1, 4'-[[5,7-dimethyl-2-butyl-6(1H)-cycloheptimidazolon-1-yl]methyl]-[1,1'-biphenyl]-2-carboxylic acid]",800,250,1000,"Antagonism of the AII pressor response, maximal inhibition, ID (AII pressor response [3]): 72%; Antagonism of the AII pressor response, maximal inhibition, I.V. (AII pressor response [4]; @ 30 mg): 72%"
"CCCCc1nc2cc(C(=O)O)c(=O)c(C(=O)O)cc2n1Cc1ccc(-c2ccccc2C(=O)O)cc1 [Example 2, 4'-[[5,7-dicarboxy-2-butyl-6(1H)-cycloheptimidazolon-1-yl]methyl]-[1,1'-biphenyl]-2-carboxylic acid]",500,140,251,"Antagonism of the AII pressor response, maximal inhibition, I.V. (AII pressor response [4]; @ 10 mg): 100%"
"CCCCc1nc2ccc(=O)ccc2n1Cc1ccc(-c2ccccc2C(=O)O)cc1 [Example 3, 4'-[[2-butyl-6(1H)-cycloheptimidazolon-1-yl]methyl]-[1,1'-biphenyl]-2-carboxylic acid]",1400,24,1260,
CNCC(=O)N[C@@H](CCCN=C(N)N)C(=O)N[C@H](C(=O)N[C@@H](Cc1ccc(O)cc1)C(=O)N[C@H](C(=O)N[C@@H](Cc1cnc[nH]1)C(=O)N1CCC[C@H]1C(=O)N[C@@H](C)C(=O)O)C(C)C)C(C)C [Saralasin],,,,residual agonist activity (angiotensin II receptors): significant residual agonist activity
"angiotensin II: octapeptide, the primary active species of the renin-angiotensin system (DRVYIHPF; Angiotensin-2; UniProt P01019 25-32, looked up)",,,,vasoconstrictor potency (angiotensin II receptors): very potent vasoconstrictor agent
angiotensin III: heptapeptide {[des Asp^1 ]angiotensin II},,,,vasoconstrictor potency (angiotensin II receptors): less potent as a vasoconstrictor than angiotensin II

# Second part, led by results:
"IC50 [2, 5] [nM]",IC50 ([2]; meaning not explained) [nM],Kb [1] [nM],Compound,also measured
2300,550,1000,"CCCc1nc2cc(C(=O)O)c(=O)c(C(=O)O)cc2n1Cc1ccc(-c2ccccc2C(=O)O)cc1 [Example 4, 4'-[[5,7-dicarboxy-2-propyl-6(1H)-cycloheptimidazolon-1-yl]methyl]-[1,1'-biphenyl]-2-carboxylic acid]",
1400,349,1260,"CCCc1nc2ccc(=O)ccc2n1Cc1ccc(-c2ccccc2C(=O)O)cc1 [Example 5, 4'-[[2-propyl-6(1H)-cycloheptimidazolon-1-yl]methyl]-[1,1'-biphenyl]-2-carboxylic acid]",
2500,230,7940,"CCCCCc1nc2cc(C)c(=O)c(C)cc2n1Cc1ccc(-c2ccccc2C(=O)O)cc1 [Example 6, 4'-[[5,7-dimethyl-2-pentyl-6(1H)-cycloheptimidazolon-1-yl]methyl]-[1,1'-biphenyl]-2-carboxylic acid]",
800,117,316,"CCCCc1nc2cc(-c3ccccc3)c(=O)c(-c3ccccc3)cc2n1Cc1ccc(-c2ccccc2C(=O)O)cc1 [Example 7, 4'-[[5,7-diphenyl-2-butyl-6(1H)-cycloheptimidazolon-1-yl]methyl]-[1,1'-biphenyl]-2-carboxylic acid]",
2000,161,,"CCCCc1nc2cc(C(C)C)c(=O)c(-c3ccccc3)cc2n1Cc1ccc(-c2ccccc2C(=O)O)cc1 [Example 10, 4'-[[5(7)-isopropyl-7(5)phenyl-2-butyl-6(1H)-cycloheptimidazolon-1-yl]methyl]-[1,1'-biphenyl]-2-carboxylic acid]",pA2 [1]: 5.6
7100,,,"CCCCc1nc2cc(O)c(=O)c(Cl)cc2n1Cc1ccc(-c2ccccc2C(=O)O)cc1 [Example 11, 4'-[[5(7)-hydroxy-7(5)chloro-2-butyl-6(1H)-cycloheptimidazolon-1-yl]methyl]-[1,1'-biphenyl]-2-carboxylic acid]",pA2 [1]: 6.4
4000,390,,"CCCCc1nc2cc(C(=O)O)c(=O)c(COC)cc2n1Cc1ccc(-c2ccccc2C(=O)O)cc1 [Example 12, 4'-[[5(7)-carboxy-7(5)methoxymethyl-2-butyl-6(1H)-cycloheptimidazolon-1-yl]methyl]-[1,1'-biphenyl]-2-carboxylic acid]",pA2 [1]: 6.8
1900,38,,"CCCc1nc2ccc(=O)c(Cc3ccccc3)cc2n1Cc1ccc(-c2ccccc2C(=O)O)cc1 [Example 13, 4'-[[5(7)-hydrido-7(5)benzyl-2-propyl-6(1H)-cycloheptimidazolon-1-yl]methyl]-[1,1'-biphenyl]-2-carboxylic acid]",pA2 [1]: 5.5
710,324,,"CCCCCc1nc2cc(C)c(=O)c(C)cc2n1Cc1ccc(-c2ccccc2-c2nn[nH]n2)cc1 [Example 20, 1-{2'-[(tetrazol-5-yl)-biphenyl-4-yl]methyl}-2-pentyl-5,7-dimethyl-cycloheptimidazolone]",
